Values joined by “and” are separate entries in the source; they are usually repeats but may differ in a detail not shown here. Identical values can stand only once.
Test system: 324938-238-R-J1-PDC complex spheroid viability
Experiment: Anticancer human tumor 324938-238-R-J1-PDC patient-derived bladder carcinoma cell line growth inhibition
Settings: for viability, T/C: stronger effect = lower value; for IC50: curve of compound
Text: Multicellular complex tumor spheroid response to LSD1 Inhibitor Iadademstat in combination with a variety of drugs and investigational agents in selected tumor cell lines
The current study was undertaken to assess response to LSD1 inhibitors in combination with standard-of-care drugs and investigational agents in solid tumor complex spheroid models as well as in the K-562 leukemia. Complex spheroids include a stromal component modeled by human endothelial cells (HUVEC) and fibroblasts modeled by human mesenchymal stem cells (MSCs). The concentration ranges selected for each drug and investigational agent were based upon clinically achievable concentrations if the clinical Cmax of the agent was known.
Compounds. The drugs and investigational agents used in this study are listed on Table 1. All of the agents used, including staurosporine (NSC755774) and gemcitabine (NSC613327), were obtained from the Developmental Therapeutics Program, NCI. FDA-approved anticancer drugs are available from the NCI at http://dtp.nci.nih.gov/branches/dscb/oncology_drugset_explanation.html. Drugs and investigational agents were >95% pure by proton nuclear magnetic resonance (NMR) and liquid chromatography/mass spectrometry (LC/MS). Stock solutions were prepared at 400x in DMSO, stored at -70 degrees C, and diluted in fresh medium prior to their use. The final concentration of DMSO in cell culture wells never exceeded 0.25% (v/v). The FDA-approved anticancer drug set is available from the Developmental Therapeutics Program at https://dtp.cancer.gov/organization/dscb/obtaining/available_plates.htm. All drugs and investigational agents were tested over a range starting from a high concentration at or near the clinical Cmax and decreasing in half-log increments. If the clinical Cmax for an agent had not been determined, the highest concentration tested was 10 microM.
Cell Lines. The patient-derived cancer cell (PDC) lines: 292921-168-R-J2-PDC, K24384-001-R-PDC, and 521955-158-R2-J5-PDC pancreatic carcinomas, 556581-035-R-J1 ovarian carcinoma, 324938-238-R-J1-PDC, 855422-203-R-J1-PDC and 883617-216-R-J1-PDC urothelial bladder carcinomas, 743489-274-T-PDC renal cell carcinoma, 138582-R-J1 Merkel cell tumor, K60290-347-R-J1 and K57222-313-R-J1-PDC glioblastomas, 653999-131-R-J2-PDC, LG0703-F948-PDC, and 349418-098-R-PDC non-small cell lung carcinomas, 885512-296-R-J2-PDC, 171881-019-R-J1-PDC breast carcinomas and 186277-243-T-J2-PDC and 233499-124-R-J2-PDC colon carcinomas were obtained from the NCI Patient-Derived Models Repository (PDMR, https://pdmr.cancer.gov). The established cell lines NCI/ADR-RES (RRID:CVCL_14520 and OVCAR-5 (RRID:CVCL_1628) ovarian carcinomas, 786-O (RRID:CVCL_1051) and A498 (RRID:CVCL_A498) renal cell carcinoma, NCI-H211 (ATCC, cat. CRL-5824; RRID:CVCL_1529), NCI-H196 (ATCC, cat. CRL-5823, RRID:CVCL_1509), SW 1271 (ATCC, cat. CRL-2177, RRID:CVCL_1716) and NCI-H1876 (ATCC, cat. CRL-5902, RRID:CVCL_1503) small cell lung carcinomas, MDA-MB-231 (RRID:CVCL_0062) and MDA-MB-468 (RRID:CVCL_0419)breast carcinomas (10-12). Pooled donor human umbilical vein endothelial cells (HUVEC, Lonza, cat. CC-2519) and human mesenchymal stem cells (hMSC, Lonza, cat. PT-2501) were purchased from Lonza (Walkersville, MD).
Cell Culture. All cells were maintained in an incubator at 37 degrees C and 5% CO2 with 95% humidity. The PDC lines were cultured according to standard operating procedures established by the NCI PDMR (https://pdmr.cancer.gov). Briefly all PDCs were thawed and cultured in Matrigel-coated flasks prepared with a working solution of 1X Ham's F-12 nutrient mix, without supplementation (Invitrogen, Waltham, MA, cat. 11765054), 100 U/mL penicillin-streptomycin (Invitrogen, cat. 15140122), and 2.5% Matrigel (Corning Inc., Corning, NY, cat. 354248) for the first three passages. […]
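Further: spheroids also contain HUVEC and human MSCs and agents combined with iadademstat; spheroids exposed to agents for 7 days before readout.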

IC50 | Compound | viability, T/C (compound 0.000316 µM) | viability, T/C (compound 0.001 µM) | viability, T/C (compound 0.00316 µM) | viability, T/C (compound 0.01 µM) | viability, T/C (compound 0.0316 µM) | viability, T/C (compound 0.1 µM) | viability, T/C (compound 0.316 µM) | viability, T/C (compound 1 µM) | viability, T/C (compound 0.000949 µM) | viability, T/C (compound 0.003 µM) | viability, T/C (compound 0.00949 µM) | viability, T/C (compound 0.03 µM) | viability, T/C (compound 0.0949 µM) | viability, T/C (compound 0.3 µM) | viability, T/C (compound 0.949 µM) | viability, T/C (compound 3 µM)
51.4 nM and 31.1 nM | CC1COCCN1c1cc(-c2ccnn2C)c2ccnc(-c3ccn[nH]3)c2n1 (stereo not given) |  |  | 101% | 103% and 83.1% | 60.4% and 48.2% | 33.5% and 25.6% | 18.6% and 14.7% | 13.1% and 10.3% |  |  |  |  |  |  |  | 
2.23 nM and 2 nM | CC[C@@]1(O)C(=O)OCc2c1cc1n(c2=O)Cc2cc3c(CN(C)C)c(O)ccc3nc2-1 | 101% and 94.5% | 93% and 83.5% | 31.2% and 27.9% | 8.43% and 7.17% | 8.29% and 8.05% | 8.03% and 7.71% |  |  |  |  |  |  |  |  |  | 
21.2 nM and 13.8 nM | COc1cc(Nc2ncc3c(n2)-c2ccc(Cl)cc2C(c2c(F)cccc2OC)=NC3)ccc1C(=O)O |  |  | 91.2% and 90.6% | 76.9% and 59% | 35.7% and 26.8% | 19.6% and 15.6% | 18.6% and 13.9% | 15.3% and 14.3% |  |  |  |  |  |  |  | 
> 100 nM | Cn1ncnc1C1c2n[nH]c(=O)c3cc(F)cc(c23)NC1c1ccc(F)cc1 (stereo not given) | 99.3% and 106% | 102% and 99.5% | 99.7% and 90.2% | 92.3% and 94.8% | 82.6% and 76% | 68.6% and 58.2% |  |  |  |  |  |  |  |  |  | 
555 nM and 507 nM | Nc1ccccc1NC(=O)c1ccc(CNC(=O)OCc2cccnc2)cc1 |  |  |  |  |  |  |  |  |  |  | 112% and 111% | 107% and 111% | 96.8% and 88.3% | 63.3% and 59.8% | 37.7% and 37.5% | 9.59% and 7.01%

Further lines, the compound ahead of its results:

Compound | IC50 | viability, T/C (compound 0.000316 µM) | viability, T/C (compound 0.001 µM) | viability, T/C (compound 0.00316 µM) | viability, T/C (compound 0.01 µM) | viability, T/C (compound 0.0316 µM) | viability, T/C (compound 0.1 µM) | viability, T/C (compound 0.316 µM) | viability, T/C (compound 1 µM) | viability, T/C (compound 0.000949 µM) | viability, T/C (compound 0.003 µM) | viability, T/C (compound 0.00949 µM) | viability, T/C (compound 0.03 µM) | viability, T/C (compound 0.0949 µM) | viability, T/C (compound 0.3 µM) | viability, T/C (compound 0.949 µM) | viability, T/C (compound 3 µM)
CC(C)CC(NC(=O)C(Cc1ccccc1)NC(=O)c1cnccn1)B(O)O (stereo not given) | 0.643 nM and 0.508 nM | 95.8% and 79.7% | 21.5% and 7.74% | 0.55% and 0.19% | 0.21% and 1.23% | 0.46% and 0.17% | 0.24% and 0.28% |  |  |  |  |  |  |  |  |  | 
CC(C)CC(NC(=O)CNC(=O)c1cc(Cl)ccc1Cl)B1OC(=O)CC(CC(=O)O)(C(=O)O)O1 (stereo not given) | 2.58 nM and 1.79 nM | 104% and 111% | 106% and 77.7% | 38.2% and 23.3% | 5.09% and 2.42% | 0.23% and 0.77% | 0.23% and 0.24% |  |  |  |  |  |  |  |  |  | 
CCc1c2c(nc3ccc(O)cc13)-c1cc3c(c(=O)n1C2)COC(=O)[C@]3(O)CC | < 0.949 nM |  |  |  |  |  |  |  |  | 7.99% and 9.82% | 9.25% and 10.8% | 6.79% and 6.81% | 2.02% and 1.48% | 0.16% and 0.66% | 0.2% and 0.27% |  | 
COc1cc(C2c3cc4c(cc3C(OC3OC5COC(C)OC5C(O)C3O)C3COC(=O)C23)OCO4)cc(OC)c1O (stereo not given) | 67.5 nM and 63.9 nM |  |  |  |  |  |  |  |  |  |  | 97.2% and 106% | 84.8% and 76% | 34.7% and 35.1% | 20.9% and 20.7% | 19.2% and 17.7% | 8.35% and 8.98%
NS(=O)(=O)OCC1CC(n2ccc3c(NC4CCc5ccccc54)ncnc32)CC1O (stereo not given) | 326 nM and 256 nM |  |  |  |  |  |  |  |  |  |  | 103% and 106% | 106% and 112% | 93.4% and 94% | 54.2% and 43.8% | 12.5% and 10.2% | 15.6% and 11.9%
Nc1ccn(C2OC(CO)C(O)C2(F)F)c(=O)n1 (stereo not given) | < 0.949 nM |  |  |  |  |  |  |  |  | 11.4% and 15.4% | 8.21% and 9.09% | 7.58% and 8.65% | 6.97% and 8.11% | 5.95% and 6.14% | 5.04% and 6.97% |  | 
Nc1ncn(C2CC(O)C(CO)O2)c(=O)n1 (stereo not given) | 927 nM and 722 nM |  |  | 98.2% and 98.1% | 90.8% and 96.7% | 81% and 89.9% | 75.9% and 69.5% | 62.2% and 57.2% | 48.6% and 46.9% |  |  |  |  |  |  |  | 
Nc1ncn(C2CC(O)C(CO)S2)c(=O)n1 (stereo not given) | 32.8 nM and 24.8 nM |  |  |  |  |  |  |  |  | 97.4% and 106% | 88.2% and 90.7% | 72.2% and 69.6% | 51.5% and 46.5% | 33.2% and 27.5% | 22.2% and 17.4% |  | 
O=C(C=Cc1cccc(S(=O)(=O)Nc2ccccc2)c1)NO | 273 nM and 237 nM |  |  |  |  |  |  |  |  |  |  | 95.5% and 107% | 89.1% and 92.1% | 71% and 70% | 46.1% and 42.8% | 26.1% and 24.2% | 4.98% and 3.24%
O=C(C=Cn1cnc(-c2cc(C(F)(F)F)cc(C(F)(F)F)c2)n1)NNc1cnccn1 | 8.59 nM and 4.69 nM |  |  | 85.4% and 60.8% | 44.7% and 28.6% | 17.7% and 14.8% | 7.73% and 4.52% | 4.23% and 3.45% | 2.35% and 1.64% |  |  |  |  |  |  |  | 
